# Measured values taken from article PMC10813393 (Biomolecules, 2023).
# Read-outs that look alike come from different tables or passages of the source.
# Key:
# [1] = system: α-SARS-CoV-2 spike pseudotyped virus particles; format: cell-based; details: luciferase 72 h post-transduction
# [2] = system: o-SARS-CoV-2 spike pseudotyped virus particles (BA.2 lineage); format: cell-based; details: luciferase 72 h post-transduction
# [3] = cell-pretreatment protocol: VERO cells with FA 20 μM or L7OG 5 μM for 2 h
structure (smiles),measurement,setting,value
"O=C(O)[C@H]1O[C@@H](Oc2cc(O)c3c(=O)cc(-c4ccc(O)c(O)c4)oc3c2)[C@H](O)[C@@H](O)[C@@H]1O [Compound L7OG, luteolin-7-O-glucuronide]",entry of α-SARS-CoV-2 pseudovirus (in words),[1]; [3],neither L7OG nor FA inhibited the entry
same,entry of o-SARS-CoV-2 pseudovirus (in words),[2]; [3],neither L7OG nor FA inhibited the entry
"Nc1nc(=O)c2nc(CNc3ccc(C(=O)N[C@@H](CCC(=O)O)C(=O)O)cc3)cnc2[nH]1 [FA, folic acid, reference compound]",entry of α-SARS-CoV-2 pseudovirus (in words),"[1]; […], VERO cells",blocked the entry
same,entry of α-SARS-CoV-2 pseudovirus (in words),[1]; [3],neither L7OG nor FA inhibited the entry
same,entry of o-SARS-CoV-2 pseudovirus (in words),"[2]; […], VERO cells",blocked the entry
same,entry of o-SARS-CoV-2 pseudovirus (in words),[2]; [3],neither L7OG nor FA inhibited the entry
